Among the data in PubChem BioAssay (NCI) are GI50 and TGI values, retold here.

Where “and” joins values, the source holds several entries; their conditions need not be identical. Equal values may be shown once.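 1) Cells in 96-well plates. 2) Compound, 48 h, 5 concentrations. 3) Linear interpolation between surrounding doses. 4) Unreached endpoint = highest concentration. GI50 = concentration required for 50% inhibition of growth. TGI: total growth inhibition.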 Bounds are passed on as bounds.

Test systems include HCT-15 colon; IGROV1 ovarian; MOLT-4 leukemia; NCI/ADR-RES ovarian; OVCAR-3 ovarian; SF-295 CNS; SK-MEL-2 melanoma; SK-MEL-28 melanoma; SN12C renal; SR leukemia.
Assay in all cases: DTP human tumour cell line panel, 48 h

As for `CC/C=C\C/C=C/C=C1/C(=O)C=C[C@@H]1C/C=C\CCCC(=O)OC`, the GI50 in the experiment with HCT-15 colon was 2.2 µM; in the experiment on IGROV1 ovarian, 2.95 µM; with MOLT-4 leukemia, 1.36 µM; in the experiment on NCI/ADR-RES ovarian, 3.32 µM; in the experiment on OVCAR-3 ovarian, 1.54 µM; in the experiment with SF-295 CNS, 3.5 µM. In addition, the GI50 is 3.35 µM with SK-MEL-2 melanoma, 2.33 µM in the experiment with SK-MEL-28 melanoma, 2.7 µM in the experiment on SN12C renal and 0.398 µM in the experiment on SR leukemia. Besides, the TGI in the experiment with HCT-15 colon was 7.89 µM; in the experiment on IGROV1 ovarian, 10.2 µM; with MOLT-4 leukemia, 11.2 µM; in the experiment on NCI/ADR-RES ovarian it was above 100 µM; in the experiment on OVCAR-3 ovarian it was 6.35 µM; in the experiment with SF-295 CNS it was 14 µM. For the same molecule, the concentration for total growth inhibition (TGI) with SK-MEL-2 melanoma came to 12.5 µM; in the experiment on SK-MEL-28 melanoma, 6.42 µM; in the experiment with SN12C renal, 7.79 µM; in the experiment on SR leukemia, 15.5 µM.
Take `C=CCn1c(=O)c2cnc(Nc3ccc(N4CCN(C)CC4)cc3)nc2n1-c1cccc(C(C)(C)O)n1`: the GI50 was 0.682 µM and 0.601 µM with HCT-15 colon; 0.184 µM and 0.225 µM in the experiment on IGROV1 ovarian; 0.348 µM and 0.333 µM in the experiment on MOLT-4 leukemia; 2.19 µM and 2.73 µM in the experiment on NCI/ADR-RES ovarian; 0.241 µM and 0.331 µM with OVCAR-3 ovarian; 0.48 µM and 0.589 µM with SF-295 CNS. For the same molecule, the concentration for 50% growth inhibition (GI50) in the experiment with SK-MEL-2 melanoma was 0.118 µM and 0.266 µM; with SK-MEL-28 melanoma, 4.61 µM and 4.37 µM; in the experiment on SN12C renal it was 0.855 µM and 0.479 µM; in the experiment with SR leukemia, 0.269 µM and 0.253 µM. Also, the TGI in the experiment with HCT-15 colon was above 67.1 µM; with IGROV1 ovarian it was 15.5 µM and > 5.26 µM; in the experiment with MOLT-4 leukemia, 18.1 µM and 4.26 µM; with NCI/ADR-RES ovarian it was 18.6 µM and > 10 µM; in the experiment with OVCAR-3 ovarian, 0.9 µM and 1.47 µM; with SF-295 CNS, 14.4 µM and > 10 µM. In addition, the total growth inhibition concentration (TGI) is 0.956 µM and 2.99 µM in the experiment with SK-MEL-2 melanoma; 20.6 µM and > 10 µM in the experiment with SK-MEL-28 melanoma; above 100 µM in the experiment with SN12C renal; 1.67 µM and 2.07 µM with SR leukemia.
Take `NNc1c2ccccc2nc2ccccc12`: the GI50 in the experiment with HCT-15 colon was 4.2 µM; in the experiment on IGROV1 ovarian, 3.07 µM; with MOLT-4 leukemia, 0.897 µM; in the experiment on NCI/ADR-RES ovarian, 3.76 µM; in the experiment with OVCAR-3 ovarian it was 5.85 µM; with SF-295 CNS, 1.88 µM. Besides, the GI50 in the experiment with SK-MEL-2 melanoma was 12.5 µM; in the experiment with SK-MEL-28 melanoma it was 10.7 µM; in the experiment on SN12C renal, 6.44 µM; with SR leukemia, 3.4 µM. In addition, the total growth inhibition concentration (TGI) in the experiment with HCT-15 colon is 34.2 µM; with IGROV1 ovarian, 20.8 µM; in the experiment with MOLT-4 leukemia, above 100 µM; with NCI/ADR-RES ovarian, 27.4 µM; in the experiment on OVCAR-3 ovarian it was 27.3 µM; with SF-295 CNS it was 14.9 µM. The TGI is 29.2 µM in the experiment with SK-MEL-2 melanoma, 60.7 µM in the experiment with SK-MEL-28 melanoma, 56.7 µM in the experiment with SN12C renal and 19.8 µM in the experiment on SR leukemia.
Consider `O=C(NN1C(=O)CSC1c1ccc(F)cc1)C(O)c1ccccc1` (stereo not given), for which the GI50 is above 100 µM in the experiment with HCT-15 colon; above 100 µM with IGROV1 ovarian; above 100 µM with MOLT-4 leukemia; above 100 µM in the experiment on NCI/ADR-RES ovarian; 79.5 µM in the experiment on OVCAR-3 ovarian; above 100 µM with SF-295 CNS. The GI50 was above 100 µM in the experiment with SK-MEL-2 melanoma, above 100 µM in the experiment on SK-MEL-28 melanoma, above 100 µM in the experiment with SN12C renal and 60.8 µM in the experiment with SR leukemia. For the same molecule, the TGI with HCT-15 colon, in the experiment on IGROV1 ovarian, in the experiment on MOLT-4 leukemia, in the experiment with NCI/ADR-RES ovarian, in the experiment on OVCAR-3 ovarian and with SF-295 CNS was above 100 µM each time. Further, the total growth inhibition concentration (TGI) in the experiment on SK-MEL-2 melanoma, with SK-MEL-28 melanoma, in the experiment on SN12C renal and in the experiment on SR leukemia was above 100 µM each time.
Take `Nc1n[nH]c2ccc([C@@H]3Nc4cc5[nH]ncc5cc4[C@H]4C5CCC(C5)[C@@H]34)cc12` (stereo not given in full): the GI50 with HCT-15 colon was 0.431 µM; in the experiment on IGROV1 ovarian, 0.533 µM; in the experiment with MOLT-4 leukemia it was 0.442 µM; in the experiment with NCI/ADR-RES ovarian it was 0.807 µM; in the experiment with OVCAR-3 ovarian it was 0.381 µM; with SF-295 CNS it was 0.257 µM. Also, the GI50 was 0.736 µM with SK-MEL-2 melanoma, 10.5 µM in the experiment with SK-MEL-28 melanoma, 0.525 µM in the experiment with SN12C renal and 0.564 µM in the experiment with SR leukemia. The TGI in the experiment on HCT-15 colon was above 100 µM; in the experiment with IGROV1 ovarian it was 41.8 µM; in the experiment with MOLT-4 leukemia it was above 100 µM; in the experiment with NCI/ADR-RES ovarian, above 100 µM; with OVCAR-3 ovarian, 13.3 µM; in the experiment with SF-295 CNS, 19.2 µM. In addition, the total growth inhibition concentration (TGI) with SK-MEL-2 melanoma is above 70.5 µM; with SK-MEL-28 melanoma, 72.2 µM; with SN12C renal, above 82.9 µM; with SR leukemia, above 100 µM.
For the molecule `Cc1oc2c(c1C(=O)N1CC[C@@H](N)C1)C(=O)c1c(c(O)c3ccccc3c1O)C2=O`, the GI50 in the experiment on HCT-15 colon is 1.49 µM; in the experiment with IGROV1 ovarian, 1.27 µM; in the experiment with MOLT-4 leukemia it was 0.304 µM; in the experiment on NCI/ADR-RES ovarian it was 2.39 µM; in the experiment on OVCAR-3 ovarian, 2.68 µM; in the experiment with SF-295 CNS, 0.272 µM. Further, the GI50 is 11 µM with SK-MEL-2 melanoma, 7.47 µM with SK-MEL-28 melanoma, 1.3 µM in the experiment with SN12C renal and 0.224 µM with SR leukemia. In addition, the TGI amounted to 11.9 µM with HCT-15 colon; 3.94 µM in the experiment with IGROV1 ovarian; 1.96 µM in the experiment on MOLT-4 leukemia; 8.56 µM in the experiment on NCI/ADR-RES ovarian; 9.5 µM in the experiment on OVCAR-3 ovarian; 1.79 µM with SF-295 CNS. Further, the concentration for total growth inhibition (TGI) was determined as 23.9 µM in the experiment with SK-MEL-2 melanoma, 20.9 µM in the experiment on SK-MEL-28 melanoma, 11 µM with SN12C renal and 3.48 µM in the experiment with SR leukemia.
Regarding `COc1ccc2c(c1)/C(=C\c1c[nH]c3ccc(OC)cc13)C(=O)N2`, the GI50 in the experiment with HCT-15 colon was 2.97 µM; with IGROV1 ovarian, 3.66 µM; with MOLT-4 leukemia, 2.95 µM; in the experiment on NCI/ADR-RES ovarian, 2.65 µM; in the experiment on OVCAR-3 ovarian, 3.65 µM; with SF-295 CNS it was 3.67 µM. The GI50 with SK-MEL-2 melanoma is 2.3 µM; in the experiment on SK-MEL-28 melanoma it was 4.56 µM; with SN12C renal it was 3.07 µM; in the experiment with SR leukemia, 2.39 µM. In addition, the TGI in the experiment with HCT-15 colon stood at 12.9 µM; in the experiment with IGROV1 ovarian it was 17.1 µM; in the experiment with MOLT-4 leukemia it was 8.14 µM; in the experiment on NCI/ADR-RES ovarian, 8.25 µM; in the experiment on OVCAR-3 ovarian it was 13.6 µM; in the experiment on SF-295 CNS, 16.8 µM. The total growth inhibition concentration (TGI) in the experiment on SK-MEL-2 melanoma is 6.27 µM; in the experiment with SK-MEL-28 melanoma it was 16.7 µM; in the experiment on SN12C renal, 12.6 µM; in the experiment with SR leukemia, 7.9 µM.
